Test results as given in patent US9598421B2, “Imidazopyridazine compounds” (Pfizer Inc., priority 2014, dated 2017).
Counter-ions that a name gives are not always drawn.

Each molecule was assayed against Human PDE4A (Homo sapiens (Human), UniProt P27815) (assay: PDE4A Scintillation Proximity Assay (SPA), inhibition of enzyme activity). Conditions: human recombinant enzyme, 1 μM cAMP substrate, 30 min at 25° C., geometric mean of 2-9 determinations unless otherwise indicated, read-out: Human PDE4A FL.
Type: biochemical
Procedure: The PDE4A3, PDE4B1, PDE4C1 and PDE4D3 assays use the Scintillation Proximity Assay (SPA) technology to measure the inhibition of human recombinant PDE4A1, PDE4B3, PDE4C1, and PDE4D3 enzyme activity by compounds in vitro. The PDE4A1, PDE4B3, PDE4C1, and PDE4D3 assays are run in parallel using identical parameters, except for the concentration of enzyme (80 pM PDE4A3, 40 pM PDE4B3, 40 pM PDE4C1 and 10 pM PDE4D). […] Reactions are incubated for 30 min at 25° C. The addition of 20 uL of 8 mg/ml yitrium silicate SPA beads (Perkin Elmer) stops the reaction. The plates are sealed (TopSeal, Perkin Elmer) and the beads are allowed to settle for 8 hrs, after which they are read on the Trilux Microbeta overnight.

Sequence of Human PDE4A (P27815 other isoform, or with tags, fused parts or gaps): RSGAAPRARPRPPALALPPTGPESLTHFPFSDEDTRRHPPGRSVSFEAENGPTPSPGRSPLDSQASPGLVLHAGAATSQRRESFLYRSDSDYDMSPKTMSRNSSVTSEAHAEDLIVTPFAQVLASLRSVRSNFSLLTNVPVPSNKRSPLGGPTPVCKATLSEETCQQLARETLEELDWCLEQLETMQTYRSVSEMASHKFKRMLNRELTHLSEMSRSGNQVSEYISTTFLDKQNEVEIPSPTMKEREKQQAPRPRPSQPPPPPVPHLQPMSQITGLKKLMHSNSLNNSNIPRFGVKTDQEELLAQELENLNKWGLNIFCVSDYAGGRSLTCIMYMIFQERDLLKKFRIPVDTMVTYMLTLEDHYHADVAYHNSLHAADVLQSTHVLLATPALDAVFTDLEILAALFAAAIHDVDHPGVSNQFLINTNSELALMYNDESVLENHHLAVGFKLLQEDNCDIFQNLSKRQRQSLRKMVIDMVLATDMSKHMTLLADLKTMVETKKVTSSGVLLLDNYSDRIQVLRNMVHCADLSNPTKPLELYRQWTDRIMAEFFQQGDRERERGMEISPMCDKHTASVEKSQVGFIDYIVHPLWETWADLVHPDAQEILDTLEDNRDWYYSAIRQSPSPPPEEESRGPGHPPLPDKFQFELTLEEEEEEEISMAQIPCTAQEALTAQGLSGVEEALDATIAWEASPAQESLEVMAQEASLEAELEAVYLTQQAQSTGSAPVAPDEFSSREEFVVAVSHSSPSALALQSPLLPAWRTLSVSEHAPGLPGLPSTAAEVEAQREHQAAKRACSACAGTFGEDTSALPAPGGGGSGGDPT

In order of falling IC50:
1. O=C(c1nc2cccnn2c1-c1cncc(Cl)c1)N1CCC1 [Example 15, azetidin-1-yl[3-(5-chloropyridin-3-yl)imidazo[1,2-b]pyridazin-2-yl]methanone]  264 nM
2. COc1ccc(-c2c(C(=O)N3CCC3)nc3cccnn23)c(F)c1 [Example 73, azetidin-1-yl[3-(2-fluoro-4-methoxyphenyl)imidazo[1,2-b]pyridazin-2-yl]methanone]  165 nM
3. Cc1cc(-c2c(C(=O)NC3CC3)nc3cccnn23)c(F)cc1C#N [Example 17, 3-(4-cyano-2-fluoro-5-methylphenyl)-N-cyclopropylimidazo[1,2-b]pyridazine-2-carboxamide]  89.9 nM
4. O=C(NC1CC1)c1nc2cccnn2c1-c1ccc2ncnn2c1 [Example 6, N-Cyclopropyl-3-([1,2,4]triazolo[1,5-a]pyridin-6-yl)imidazo[1,2-b]pyridazine-2-carboxamide]  64.4 nM
5. O=C(Nc1ccn[nH]1)c1nc2cccnn2c1-c1ccc(Cl)cc1 [Example 103, 3-(4-chlorophenyl)-N-(1H-pyrazol-5-yl)imidazo[1,2-b]pyridazine-2-carboxamide]  62.7 nM
6. CN(C(=O)c1nc2cccnn2c1-c1ccc(Cl)c(F)c1)C1CC1 [Example 21, 3-(4-chloro-3-fluorophenyl)-N-cyclopropyl-N-methylimidazo[1,2-b]pyridazine-2-carboxamide]  53.7 nM
7. CCCNC(=O)c1nc2cccnn2c1-c1cc(F)cc(Cl)c1 [Example 34, 3-(3-chloro-5-fluorophenyl)-N-propylimidazo[1,2-b]pyridazine-2-carboxamide]  29.5 nM
8. Cc1cc(Cl)ccc1-c1c(C(=O)N2CCC2)nc2cccnn12 [Example 56, azetidin-1-yl[3-(4-chloro-2-methylphenyl)imidazo[1,2-b]pyridazin-2-yl]methanone]  22.7 nM
9. Cc1cc(C#N)c(F)cc1-c1c(C(=O)NC(C)C)nc2cccnn12 [Example 99, 3-(4-cyano-5-fluoro-2-methylphenyl)-N-(propan-2-yl)imidazo[1,2-b]pyridazine-2-carboxamide]  19.8 nM
10. Cc1cc(C#N)c(F)cc1-c1c(C(=O)NC2CC2)nc2cccnn12 [Example 19, 3-(4-cyano-5-fluoro-2-methylphenyl)-N-cyclopropylimidazo[1,2-b]pyridazine-2-carboxamide]  16.9 nM
11. O=C(c1nc2cccnn2c1-c1cccc(Cl)c1)N1CCC1 [Example 84, azetidin-1-yl[3-(3-chlorophenyl)imidazo[1,2-b]pyridazin-2-yl]methanone]  16.7 nM
12. O=C(c1nc2cccnn2c1-c1cc(F)c(Cl)cc1F)N1CCC1 [Example 91, azetidin-1-yl[3-(4-chloro-2,5-difluorophenyl)imidazo[1,2-b]pyridazin-2-yl]methanone]  12.6 nM
13. O=C(Nc1cn[nH]c1)c1nc2cccnn2c1-c1ccc(Cl)c(F)c1 [Example 82, 3-(4-chloro-3-fluorophenyl)-N-(1H-pyrazol-4-yl)imidazo[1,2-b]pyridazine-2-carboxamide]  12 nM
14. CCNC(=O)c1nc2cccnn2c1-c1ccc(Cl)c(F)c1 [Example 81, 3-(4-chloro-3-fluorophenyl)-N-ethylimidazo[1,2-b]pyridazine-2-carboxamide]  7.86 nM
15. O=C(c1nc2cccnn2c1-c1ccc2c(c1)OC(F)(F)O2)N1CCC1 [Example 86, azetidin-1-yl[3-(2,2-difluoro-1,3-benzodioxol-5-yl)imidazo[1,2-b]pyridazin-2-yl]methanone]  5.83 nM
16. Cc1cc(Cl)c(F)cc1-c1c(C(=O)NC(C)C)nc2cccnn12 [Example 97, 3-(4-chloro-5-fluoro-2-methylphenyl)-N-(propan-2-yl)imidazo[1,2-b]pyridazine-2-carboxamide]  5.48 nM
17. Cc1ccc(-c2c(C(=O)N3CCC3)nc3cccnn23)cc1Cl [Example 49, azetidin-1-yl[3-(3-chloro-4-methylphenyl)imidazo[1,2-b]pyridazin-2-yl]methanone]  4.16 nM
18. Cc1ccc(-c2c(C(=O)NC3CC3)nc3cccnn23)cc1F [Example 41, N-cyclopropyl-3-(3-fluoro-4-methylphenyl)imidazo[1,2-b]pyridazine-2-carboxamide]  3.13 nM
19. O=C(N[C@@H]1C[C@@H]1F)c1nc2cccnn2c1-c1ccc(Cl)c(F)c1 [Example 45, 3-(4-chloro-3-fluorophenyl)-N-[(1R,2S)-2-fluorocyclopropyl]imidazo[1,2-b]pyridazine-2-carboxamide]  2.91 nM

The molecules below were run against Human PDE4D (Homo sapiens (Human), UniProt Q08499) (assay: PDE4D Scintillation Proximity Assay (SPA), inhibition of enzyme activity). Conditions: human recombinant enzyme, 1 μM cAMP substrate, 30 min at 25° C., geometric mean of 2-9 determinations unless otherwise indicated, read-out: Human PDE4D FL.
Type: biochemical

Sequence of Human PDE4D (Q08499 186-808): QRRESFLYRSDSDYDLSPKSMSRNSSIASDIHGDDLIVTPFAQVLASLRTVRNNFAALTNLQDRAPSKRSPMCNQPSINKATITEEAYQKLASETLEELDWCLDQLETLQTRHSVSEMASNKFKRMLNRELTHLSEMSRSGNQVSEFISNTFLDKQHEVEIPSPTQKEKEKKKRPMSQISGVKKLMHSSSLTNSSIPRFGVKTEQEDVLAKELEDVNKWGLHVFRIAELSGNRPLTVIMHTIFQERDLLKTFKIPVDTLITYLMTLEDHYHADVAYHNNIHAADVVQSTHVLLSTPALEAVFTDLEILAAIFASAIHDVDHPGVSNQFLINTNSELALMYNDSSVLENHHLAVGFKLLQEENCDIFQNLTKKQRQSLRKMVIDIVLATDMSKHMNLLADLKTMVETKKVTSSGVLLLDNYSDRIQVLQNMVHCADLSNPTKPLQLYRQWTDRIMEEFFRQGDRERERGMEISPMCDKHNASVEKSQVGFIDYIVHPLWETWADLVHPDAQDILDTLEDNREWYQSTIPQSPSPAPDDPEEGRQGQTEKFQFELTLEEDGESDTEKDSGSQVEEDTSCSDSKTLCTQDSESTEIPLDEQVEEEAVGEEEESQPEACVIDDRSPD

Going from `O=C(NC1CC1)c1nc2cccnn2c1-c1ccc(Cl)c(Cl)c1` [Example 11, N-cyclopropyl-3-(3,4-dichlorophenyl)imidazo[1,2-b]pyridazine-2-carboxamide] to `O=C(NC1CC1)c1nc2cccnn2c1-c1cnc2ccoc2c1` [Example 38, N-cyclopropyl-3-(furo[3,2-b]pyridin-6-yl)imidazo[1,2-b]pyridazine-2-carboxamide], the IC50 rises from 334 nM to 11200 nM (34-fold).

Going from `CC(C)NC(=O)c1nc2cccnn2c1-c1cc(F)c(Cl)cc1F` [Example 100, 3-(4-chloro-2,5-difluorophenyl)-N-(propan-2-yl)imidazo[1,2-b]pyridazine-2-carboxamide] to `CCNC(=O)c1nc2cccnn2c1-c1ccc(Cl)cc1C` [Example 95, 3-(4-chloro-2-methylphenyl)-N-ethylimidazo[1,2-b]pyridazine-2-carboxamide], the IC50 rises from 766 nM to 14800 nM (19-fold). The first is the more potent here.

Compared with `Cc1ccc(-c2c(C(=O)N[C@@H]3C[C@@H]3F)nc3cccnn23)c(F)c1` [Example 72, N-[(1R,2S)-2-fluorocyclopropyl]-3-(2-fluoro-4-methylphenyl)imidazo[1,2-b]pyridazine-2-carboxamide], `O=C(N[C@@H]1C[C@@H]1F)c1nc2cccnn2c1-c1cncc(Cl)c1` [Example 69, 3-(5-chloropyridin-3-yl)-N-[(1R,2S)-2-fluorocyclopropyl]imidazo[1,2-b]pyridazine-2-carboxamide] is 2-fold lower in IC50: 6590 nM for the first, 3330 nM for the second.

Compared with `O=C(NC1CC1(F)F)c1nc2cccnn2c1-c1ccc(Cl)c(F)c1` (centres unmarked) [Example 44, 3-(4-chloro-3-fluorophenyl)-N-(2,2-difluorocyclopropyl)imidazo[1,2-b]pyridazine-2-carboxamide], `Cc1cc(-c2c(C(=O)N3CCC3)nc3cccnn23)ccc1Cl` [Example 51, azetidin-1-yl[3-(4-chloro-3-methylphenyl)imidazo[1,2-b]pyridazin-2-yl]methanone] is 8.8-fold higher in IC50: 320 nM for the first, 2810 nM for the second. The first is the more potent here.

Compared with `Cc1ccc(Cl)cc1-c1c(C(=O)N2CCC2)nc2cccnn12` [Example 64, azetidin-1-yl[3-(5-chloro-2-methylphenyl)imidazo[1,2-b]pyridazin-2-yl]methanone], `O=C(c1nc2cccnn2c1-c1ccc(Cl)cc1Cl)N1CCC1` [Example 65, azetidin-1-yl[3-(2,4-dichlorophenyl)imidazo[1,2-b]pyridazin-2-yl]methanone] is 4.4-fold higher in IC50: 844 nM for the first, 3720 nM for the second.

Going from `O=C(c1nc2cccnn2c1-c1ccc2ncnn2c1)N1CCC1` [Example 16, azetidin-1-yl[3-([1,2,4]triazolo[1,5-a]pyridin-6-yl)imidazo[1,2-b]pyridazin-2-yl]methanone] to `O=C(c1nc2cccnn2c1-c1cnc2ccnn2c1)N1CCC1` [Example 74, azetidin-1-yl[3-(pyrazolo[1,5-a]pyrimidin-6-yl)imidazo[1,2-b]pyridazin-2-yl]methanone], the IC50 falls from greater than 27500 nM to 10500 nM.

First: Cc1ccc(C#N)cc1-c1c(C(=O)NC2CC2)nc2cccnn12 [Example 80, 3-(5-cyano-2-methylphenyl)-N-cyclopropylimidazo[1,2-b]pyridazine-2-carboxamide]
Second: O=C(NC1CC1)c1nc2cccnn2c1-c1cnc2ccnn2c1 [Example 78, N-cyclopropyl-3-(pyrazolo[1,5-a]pyrimidin-6-yl)imidazo[1,2-b]pyridazine-2-carboxamide]
The IC50 of the first is higher: greater than 25400 nM for the first, 6490 nM for the second. The second is the more potent here.

With `O=C(c1nc2cccnn2c1-c1ccnc(C(F)(F)F)c1)N1CCC1` [Example 43, azetidin-1-yl{3-[2-(trifluoromethyl)pyridin-4-yl]imidazo[1,2-b]pyridazin-2-yl}methanone] the IC50 was greater than 16900 nM.

Same assay, conditions: read-out: Human PDE4D FL

`Cn1ncc(NC(=O)c2nc3cccnn3c2-c2ccc(Cl)cc2)n1` [Example 59, 3-(4-chlorophenyl)-N-(2-methyl-2H-1,2,3-triazol-4-yl)imidazo[1,2-b]pyridazine-2-carboxamide, trifluoroacetate salt] and `Cc1cc(NC(=O)c2nc3cccnn3c2-c2ccc(Cl)cc2)no1` [Example 58, 3-(4-chlorophenyl)-N-(5-methyl-1,2-oxazol-3-yl)imidazo[1,2-b]pyridazine-2-carboxamide, trifluoroacetate salt] are within 1.5-fold of each other in IC50: 749 nM for the first, 831 nM for the second.

Compared with `O=C(c1nc2cccnn2c1-c1ccc2c(c1)OCCO2)N1CCC1` [Example 67, azetidin-1-yl[3-(2,3-dihydro-1,4-benzodioxin-6-yl)imidazo[1,2-b]pyridazin-2-yl]methanone, formate salt], `O=C(c1nc2cccnn2c1-c1ccc2nccnc2c1)N1CCC1` [Example 62, azetidin-1-yl[3-(quinoxalin-6-yl)imidazo[1,2-b]pyridazin-2-yl]methanone, formate salt] is 4.9-fold higher in IC50: 2260 nM for the first, 11000 nM for the second.

Going from `O=C(NCCc1ccccc1O)c1nc2cccnn2c1-c1ccc(Cl)cc1` [Example 57, 3-(4-chlorophenyl)-N-[2-(2-hydroxyphenyl)ethyl]imidazo[1,2-b]pyridazine-2-carboxamide, formate salt] to `Cc1ccc(-c2c(C(=O)N3CCC3)nc3cccnn23)c(C)c1Cl` [Example 66, azetidin-1-yl[3-(3-chloro-2,4-dimethylphenyl)imidazo[1,2-b]pyridazin-2-yl]methanone, formate salt], the IC50 falls from greater than 21800 nM to 3390 nM. The second is the more potent here.

In the case of `CC(=O)c1ccc(F)c(-c2c(C(=O)N3CCC3)nc3cccnn23)c1` [Example 63, 1-[3-[2-(azetidin-1-ylcarbonyl)imidazo[1,2-b]pyridazin-3-yl]-4-fluorophenyl]ethanone, formate salt], the IC50 is reported as 394 nM.
